For test [1], the system named is Wnt/wg pathway, Wnt-responsive luciferase reporter dTF12. Nature of the test: Wg-responsive dTF12 (TOP12) luciferase reporter assay in Drosophila Clone 8 cells, pathway activated by Axin dsRNA. The format is cell-based. As to conditions: Drosophila melanogaster; luciferase assay method in Drosophila Clone 8 cells. The text has this:
The present inventors employed a novel methodology that integrates a “sensitized” chemical genetic high-throughput screen (HTS) with RNA-interference (RNAi) screening technology in order to identify specific small molecule inhibitors of the Wnt pathway in Drosophila cells. As described herein, Drosophila Clone 8 cell-based assay systems developed by the present inventors to investigate the Wnt/wg pathway [DasGupta et al. Science 308, 826-33 (2005)] were used in a small molecule chemical genetic screen to identify specific inhibitors of the pathway. These cell-based assays, which are described in detail below, utilize a Wnt-responsive luciferase reporter […], the activity of which can be determined using […]. The present inventors used the small-molecule library available from the Institute of Chemistry and Cellular Biology (ICCB-Longwood) at Harvard Medical School, Boston, for the screen. […] The resultant activation of the Wnt signaling pathway is then detected by assessing the activity of the Wnt-responsive luciferase reporter gene in the cell-based assay system. […] Primary Small Molecule Screen for the Wingless Signaling Pathway in Drosophila Clone 8 Cells Set up transfection with Wg-reporter ([…]), Normalization vector (PolIII-RL) and dsRNA against […] specific towards Drosophila Axin and lacks any predicted off-targets). 1. Add 40,000 Drosophila Clone 8 cells (in 40 μL) in 384-well plate (white solid bottom, Corning Costar) using the multidrop. 2. Add 20 μLof Transfection mix in each well of a 384-well plate (Corning Costar) using the multidrop. Incubate at 25° C. for 4 days to ensure complete knockdown of Axin. Add small molecule library (Cybio Robot). Incubate 18 hrs. Assay luminescence from the samples using the “Dual-Glo” luciferase kit (Promega Inc.). Specifically, aspirate supernatant and add 20 μL media+20 μL luciferase buffer using the multidrop. Read Firefly Luciferase activity on the EnVision (Perkin Elmer plate reader). Add 20 μL of Stop&Glo using the multidrop. Read Renilla luciferase activity on the EnVision (Perkin Elmer plate reader). The Wnt signaling pathway was induced by the introduction of dsRNAs specific for Axin into Clone 8 cells comprising the Wg-responsive luciferase reporter-gene ([…]). As described herein, Axin is a scaffold protein that negatively regulates Arm/β-cat by promoting its degradation. Thereafter, a selected set of a small molecule library was added to the Clone 8 cell-based assay system to assess the effect of individual compounds on (Axin dsRNA-mediated) activated CRT by monitoring the activity of the Wg-responsive luciferase reporter-gene ([…]). […] For the purpose of Table 11 below, activity of each compound is determined using the luciferase assay method in Drosophila Clone 8 cells.
(In general: A reporter such as luciferase makes a cellular process visible.)

The test system of test [2] is C57 mg mouse mammary epithelial cell line. Nature of the test: C57mg transformation assay (Wnt3a induced). In kind it is cell-based. To be noted: 10 ng/μl, 5 days, FIG. 5. As for the experimental part: The transformation assay was carried out in a 96 well format. C57 mg cells were cultured in DMEM/10% FBS supplemented with purified Wnt3a protein (R&D Systems) to a final concentration of […]. Small molecule compounds dissolved in DMSO were added to a final concentration of 10 ng/μl and 0.01% DMSO. Following incubation at 37° C. for 5 days, cells were fixed with 4% Formaldehyde in 1×PBS at RT for 30 min and washed subsequently with 1×PBS at room temperature (RT) for 5 minutes (×3). Cells were then permeabilized in Blocking buffer (0.1% Triton-X/1×PBS/5% Normal Goat Serum) at RT for 20 min, subsequent to which, cells were incubated with anti-β-cat at RT for 1 hour (diluted to 1:1000 in blocking buffer). Subsequently, cells were washed with 1×PBS at RT for 10 minutes (×3) and then incubated with secondary antibody and Alexa-Fluor 488 conjugated phalloidin in Blocking buffer at RT for 1 hour. Following a brief wash in 1×PBS, cells were imaged in PBS buffer using the Array-Scan imaging system.
Transformation of the cell line is evidenced by pronounced changes in morphology, typified by formation of chord-like bundles of cells or foci-forming colonies that break off and float in the media [Wong et al. supra, 1994]. This Wnt responsive phenotype provides a mammalian assay in which to evaluate the inhibitory effect of the small molecule inhibitors identified in the primary screen. Briefly, cells are cultured in Wnt3a conditioned media in the presence or absence of a small molecule inhibitor and morphological analysis conducted using automated microscopy.
The present inventors have established a phenotypic assay using the Wnt-responsive C57 mg mouse mammary epithelial cell line to ascertain the validity of the inhibitory compounds identified in the primary screen. Specifically, addition of Wnt3a conditioned media or purified Wnt3a protein results in cellular transformation, manifested by a pronounced change from an epithelial-cell like morphology to those resembling spindle shaped cells with chord like bundles. […] The Array-Scan imagining system (Cellomics Inc.) is used to image such phenotypic changes in a 96-well plate format so as to gain a quantitative estimate of the degree of the inhibitory effect of the compounds on Wnt3a induced transformation in C57 mg cells. Quantitative analysis of the transformation phenotype is measured by the degree of actin fiber alignment (defined as anisotropy), which is expressed as the standard deviation (SD) of the angles projected by the actin fibers relative to the normal; low SD numbers reflect an increase in Wnt-responsive transformation. This approach allows for objective inferences on the cellular effects of the candidate inhibitors.

For test [3], the system named is Wnt-responsive STF16 luciferase reporter in HEK 293 cells. Kind of test: Wnt-responsive STF16 luciferase reporter assay in HEK 293 cells. To be noted: 2.5 ng/μl, Wnt3a conditioned media, FIG. 4. In kind it is cell-based, mammalian. As to the method: HEK 293 cells were transfected with 50 ng each of the Wnt-responsive STF16 luciferase reporter and pCMV-RL normalization reporter using the Lipofectamine LTX (Invitrogen Inc.) in a 96 well plate format. Cells were cultured in DMEM/10% FBS at 37° C. for 2 days following which, they were induced with Wnt3a conditioned media for 1 day and then treated with small molecule compounds to a final concentration of 2.5 ng/μl for approximately 18 hours. Luciferase reporter activity was then measured using the Dual-Glo system (Promega Inc.) on the Envision Plate Reader. Normalized luciferase activity in response to treatment with candidate small molecule compounds was compared to that obtained from cells treated with DMSO. In order to confirm and corroborate the activity of CRT inhibitor compounds in a mammalian context, the present inventors have tested a subset of the inhibitors identified in the context of established mammalian cell lines. […] Briefly, HEK 293 cells were transfected with pSTF16-LF along with the normalization reporter, pCMV-RL and the effect of the compounds on reporter activity in such cells was determined by quantifying the luminescence from the luciferase reporter gene as described in Dasgupta et al. [supra (2005)].

A further test has as its system HCT116 cells. Nature of the test: Flow cytometry cell cycle analysis of HCT116 cells. The format is cell-based. To be noted: HCT116, 16 hrs, FIG. 9. As for the experimental part: In order to test the inhibitory effect of candidate compounds on the transcription of endogenous Wnt/β-cat target genes in HCT116 cells, lysates were prepared from cells that were either treated with candidate small molecules or DMSO control. […] Cell cycle arrest of compound treated HCT116 cells was further confirmed by the reduced number of phosphorylated Histone3 (PH3) positive cells, when cultured in the presence of candidate compounds (FIG. 10).
Flow Cytometry analysis was performed on HCT116 cells treated with candidate compounds for 16 hrs per standard protocols. Briefly, compound treated cells were harvested and washed in 1×PBS followed by fixation in 70% Ethanol at 4° C. for 16 hrs. Cells were then washed in 1×PBS and treated with RNAse at 37° C. for 30′. Following extensive washes in 1×PBS, cellular DNA was stained with 500 ug/ml of Propidium Iodide at room temperature for 10′. Cells were washed again in 1×PBS and analysed by flow cytometry on a FACScalibur machine (Beckson Dickinson) at the NYU flow cytometry core facility.
For orientation: Flow cytometry measures light scatter and fluorescence of single cells or particles in a stream.

Experimental findings from US9173871B2, “Oxazole and thiazole compounds as beta-catenin modulators and uses thereof” (New York University, priority 2008, dated 2015) are described below.

Usually IC50 stands for the midpoint of a concentration-inhibition curve. The low end stands for inhibition by little substance, the high end for a need for much substance.

With `CCc1ccc(-c2nc(CSCC(=O)NC3CC3)c(C)o2)cc1` [IIa-719], 1.58 µM corresponded to half-maximal inhibition in test [1] (IC50). Moreover, the “inhibition of Wnt3a induced C57 mg transformation” value in test [2] is reported as “partial reduction”. Regarding `CCc1ccc(-c2nc(CSCC(=O)NCCc3ccccc3)c(C)o2)cc1` [IIa-333], in test [1], the IC50 is 4.18 µM. In test [1], `O=C(CCCN1C(=O)/C(=C/c2cccs2)SC1=S)Nc1ccc(O)cc1` [IIa-432] showed an IC50 of 4.76 µM. In addition, the “inhibition of Wnt3a induced C57 mg transformation” value in test [2] is reported as “significant inhibition”. In addition, the “inhibition of Wnt responsive luciferase reporter activity in HEK-293 cells” value in test [3] is “poor inhibitors”. `CCc1ccc(-c2nc(CSCC(=O)N3CCc4ccccc43)c(C)o2)cc1` [IIa-2102] gave an IC50 in test [1] of 1.1 µM. In test [2], the “inhibition of Wnt3a induced C57 mg transformation” value is on record as “partial reduction”.

`COc1cccc(/C=C2\SC(=S)N(CCCC(=O)O)C2=O)c1OC` [IIa-143] showed an IC50 in test [1] of 3.06 µM. On to `CCc1ccc(-c2nc(CSCC(=O)NCc3ccccc3)c(C)o2)cc1` [IIa-66], for which the IC50 in test [1] came out at 3.51 µM. Consider `Cc1cc(/C=C2\SC(=O)N(c3ccccc3)C2=O)c(C)n1-c1cccnc1` [Compound C14], for which, in the test on HCT116 cells, the cell cycle effect result is listed as “G0/G1 arrest”. Regarding `Cc1ccc(-c2nc(CSCC(=O)NC3CC3)c(C)o2)cc1` [IIa-722], in test [1], the IC50 amounted to 1260 µM. For the same compound, in test [2], the “inhibition of Wnt3a induced C57 mg transformation” value is “partial reduction”.
